Experimental data taken from ChEMBL document CHEMBL1131984, “Synthesis and antitumour activity of novel diterpenequinone salvicine and the analogs” (Bioorg Med Chem Lett, 1999).
Where “and” joins values, the source holds several entries; their conditions need not be identical. Equal entries are not always repeated.

Tests used:
[1] = test system: SGC-7901; assay: In vitro cytotoxic activity against SGC-7901 stomach cancer solid tumor cell line by MTT assay (microculture terazolium colorimetric); type: functional, cell-based; settings: Homo sapiens
[2] = test system: P388; assay: In vitro cytotoxic activity against P388 mouse leukemia cell line by MTT assay (microculture terazolium colorimetric); type: functional, cell-based
[3] = test system: SPC-A4; assay: In vitro cytotoxic activity against SPC-A4 lung cancer solid tumor cell line by MTT assay (microculture terazolium colorimetric); type: functional, cell-based; settings: Homo sapiens
[4] = test system: HL-60; assay: In vitro cytotoxic activity against HL-60 human leukemia cell line by MTT assay (microculture terazolium colorimetric); type: functional, cell-based
[5] = test system: Mus musculus; assay: (§1) Ratio of the tumor weight of mice at the initial stage and the final stage of the experiment was reported at a dose of 3.0 mg/kg (day 7); type: functional
[6] = test system: Mus musculus; assay: as §1; type: functional; remark: listed apart in the source
[7] = test system: Mus musculus; assay: In vivo inhibitory activity against murine S-180 sarcoma at a dose of 3.0 mg/kg (day 7); type: functional
[8] = test system: Mus musculus; assay: In vivo inhibitory activity against murine lewis lung cancer at a dose of 5.0 mg/kg i.p. (day10); type: functional; settings: route intraperitoneal
[9] = test system: Mus musculus; assay: Ratio of the tumor weight of mice at the initial stage and the final stage of the experiment was reported at a dose of 5.0 mg/kg i.p. (day10); type: functional; settings: route intraperitoneal
[10] = test system: Mus musculus; assay: Ratio of the tumor weight of mice at the initial stage and the final stage of the experiment was reported at a dose of 0.2 ml/mouse (Q2dx10) administered i.p.; type: functional
[11] = test system: Mus musculus; assay: Ratio of the tumor weight of mice at the initial stage and the final stage of the experiment was reported at a dose of 0.2 ml/mouse (Q2dx9) administered i.p.; type: functional
[12] = test system: Mus musculus; assay: In vivo inhibitory activity against human lung adenocarcinoma xenograft A-549 in mice at a dose of 2.0 mg/kg (Q2dx9) administered i.p.; type: functional; settings: A549, ip, route intraperitoneal
[13] = test system: Mus musculus; assay: In vivo inhibitory activity against human lung adenocarcinoma xenograft LAX-83 in mice at a dose of 2.0 mg/kg (Q2dx10) administered i.p.; type: functional; settings: route intraperitoneal
[14] = test system: Mus musculus; assay: In vivo inhibitory activity against human lung adenocarcinoma xenograft A-549 in mice at a dose of 2.0 mg/kg (Q2dx10) administered i.p.; type: functional; settings: route intraperitoneal
[15] = test system: Mus musculus; assay: Ratio of the tumor weight of mice at the initial stage and the final stage of the experiment was reported at a dose of 0.2 ml/mouse (Q2dx10) administered i.p.; 10/10; type: functional

SMILES | IC50 [1] [nM] | IC50 [2] [nM] | IC50 [3] [nM] | IC50 [4] [nM] | other results
C=C(C)[C@H](CCc1c(C)ccc2c1C(=O)C(=O)C(C(C)C)=C2)OO | 2220 | 3700 | 2900 | 3700 | 
Cc1ccc2cc(C(C)C)c(=O)oc(=O)c2c1CCC(=O)C(C)C | 89600 | 1470 | 2760 | 1430 | 
Cc1ccc2c(c1CCC=O)C(=O)C(=O)C(C(C)C)=C2 | 52400 | 1780 | 2680 | 2390 | 
CC(=O)OC(CCc1c(C)ccc2c1C(=O)C(=O)C(C(C)C)=C2)C(C)(C)O (stereo not drawn) |  | 3390 | 2610 | 5040 | 
COc1cc([C@@H]2c3cc4c(cc3[C@@H](O[C@@H]3O[C@@H]5CO[C@@H](C)O[C@H]5[C@H](O)[C@H]3O)[C@H]3COC(=O)[C@H]23)OCO4)cc(OC)c1O [ETOPOSIDE] |  |  |  |  | Tumor weight [5]: 0.99 g; Tumor weight [6]: 1.09 g and 1.06 g; Inhibition [7]: 40% and 39.4% and 61.3%; inhibition in vivo at 5 mg/kg ([8]; Mus musculus, Lung, ip, 240 h): 50.3%; Inhibition ([8]; 5 mg/kg): 48.5%; Tumor weight [9]: 0.73 g and 1.03 g
CO[C@@]12[C@H](COC(N)=O)C3=C(C(=O)C(C)=C(N)C3=O)N1C[C@@H]1N[C@@H]12 [MITOMYCIN] |  |  |  |  | Tumor weight [10]: 1.62 g and 1.71 g and 1.91 g and 1.15 g; Tumor weight [11]: 3.43 g; inhibition in vivo at 2 mg/kg [12]: 79.2%; Inhibition [13]: 63.49% and 70.1% and 87.54%; inhibition in vivo at 2 mg/kg ([14]; Mus musculus, A549, ip): 67.9%; Inhibition ([14]; 2 mg/kg): 52.69%; Tumor weight [15]: 2.64 g
